Experimental data reported in publication PMC11243530 (Molecules, 2024).
Read-outs that look alike come from different tables or passages of the source. Positions of bridges follow the written chain, without caps; N, C: chain ends. Non-standard residues stand in square brackets, D forms with d. Residues, ends and D or L forms follow the SMILES beside them. No end group written: not given here. *: point of attachment. X1 = CC(=O)N[C@@H](Cc1ccccc1)C(=O)N[C@H]1Cc2ccc(cc2)OC/C=C/COc2ccc(cc2)C[C@@H](C(=O)*)NC1=O; AllylGly = C=CC[C@H](N)C(=O)O

Assays:
cloned rat KOR [1] = biological target: T1, cloned rat KOR (Rattus norvegicus, UniProt P34975); conditions: read-out: KOR Ki ± SEM; cited from earlier work
T1 construct: expressed in transfected cells

KOR [2] = conditions: following a single injection; ref [4]; cited from earlier work
Text: Recently, antagonists of the kappa opioid receptor (KOR) have attracted significant attention due to their potential use in treating various central nervous system (CNS) disorders, especially mood disorders and substance abuse. […] Consequently, there has been a growing interest in KOR antagonists, including peptide KOR antagonists, with m ...

cloned rat KOR [3] = biological target: T1, cloned rat KOR; test: Radioligand binding, competitive inhibition of [^3H]diprenorphine, KOR
KOR [4] = test: Dynorphin-stimulated [^35S]GTPγS assay, KOR antagonism (Schild analysis); type: biochemical; conditions: for agonist activity / type of antagonism at KOR: [^35S]GTPγS binding assay
cloned rat MOR = biological target: T2, cloned rat MOR (Rattus norvegicus, UniProt P33535); test: Radioligand binding, competitive inhibition of [^3H]DAMGO, MOR
T2 construct: expressed in transfected cells

KOR [5] = conditions: [^35S]GTPγS binding assay; known comparator; cited from earlier work
ẟ opioid receptor (DOR) = conditions: ref [6]; cited from earlier work
KOR [6] = conditions: ref [6]; cited from earlier work
proteases = conditions: linear peptide; general statement; cited from earlier work
[7] = system: KOR (antagonism of U50,488 antinociception); conditions: mouse 55 °C warm-water tail withdrawal; i.c.v.; ref [7]; cited from earlier work
[8] = system: stress-induced reinstatement of cocaine-seeking behavior; conditions: mouse conditioned place preference; i.c.v.; ref [7]; cited from earlier work
KOR [9] = system: KOR; set-up: method as in PMID 34162205; conditions: ref [23]; read-out: KOR agonist potency EC50; cited from earlier work
KOR [10] = biological target: KOR; set-up: method as in PMID 34162205; conditions: ref [23]; cited from earlier work

For “3: monocyclic arodyn analog, RCM cyclization between Tyr(All) residues in positions 2 and 3 (FYYRLRRARPK) [Peptide 3]”, the Ki (cloned rat KOR [1]) is given as 0.0554 ± 0.0041 µM.

In the case of `CC(C)[C@@H](CN1CC[C@@](C)(c2cccc(O)c2)[C@@H](C)C1)NC(=O)[C@H]1Cc2ccc(O)cc2CN1` [JDTic], the duration of action (KOR [2]) is listed as “exhibited prolonged effects, with their action extending from days to weeks”.

For `CC(=O)N[C@@H](Cc1ccccc1)C(=O)N[C@H]1Cc2ccc(cc2)OC/C=C/COc2ccc(cc2)C[C@@H](C(=O)N[C@@H](CCCNC(=N)N)C(=O)N[C@H]2CC=CC[C@@H](C(=O)N[C@@H](CCCNC(=N)N)C(=O)N3CCC[C@H]3C(=O)N[C@@H](CCCCN)C(N)=O)NC(=O)[C@H](CCCNC(=N)N)NC(=O)[C@H](CCCNC(=N)N)NC2=O)NC1=O` [Peptide 4] (X1-R[AllylGly]RR[AllylGly]RPK-NH2; staple 2-5), the Ki (cloned rat KOR [3]) was 0.0264 ± 0.0059 µM, the “KOR selectivity over MOR” value (cloned rat KOR [3]; MOR Ki / KOR Ki) was 97 fold and the “Ki Ratio (MOR/KOR)” value (cloned rat KOR [3]; MOR Ki / KOR Ki) was 97. The “agonist activity / type of antagonism at KOR” value (“agonist activity / type” for short) (KOR [4]) was “did not exhibit appreciable agonist activity and functioned as a potent competitive KOR antagonist”, the “agonist activity / type” value (KOR [4]; listed as bicyclic analog) was “exhibits potent KOR antagonism” and the Kb (KOR [4]; dynorphin A-(1–13)-NH2-stimulated [^35S]GTPγS binding, KOR membranes, peptidase inhibitors present, four concentrations 1–1000 nM of 4, Schild analysis, mean values from 4 independent experiments) was 0.0009 µM. For the same compound, the “KOR affinity and KOR antagonism relative to monocyclic analogs” value (KOR [4]; dynorphin-stimulated [^35S]GTPγS assay and KOR binding) was “comparable to monocyclic analogs” and the Ki (cloned rat MOR) was 2.57 ± 0.5 µM.

For “Ac[Phe^1,2,3,Arg^4,D-Ala^8]dynorphin A-(1–11)-NH2 [arodyn]”, the “agonist activity / type” value (KOR [5]) is given as “did not exhibit appreciable agonist activity and functioned as a potent competitive KOR antagonist”, the Ki (ẟ opioid receptor (DOR)) is given as greater than 5 µM and the “KOR antagonism in vitro” value (KOR [6]) is given as “potent KOR antagonist in vitro”. The susceptibility to proteolysis (proteases) was “susceptible to rapid breakdown by proteases”, the “antagonism of antinociception produced by U50,488” value [7] was “antagonized antinociception produced by the KOR-selective agonist U50,488” and the “reinstatement of cocaine-seeking behavior induced by stress” value [8] was “prevented the reinstatement of cocaine-seeking behavior induced by stress”.

For “dynorphin A-(1–13)-NH2: KOR agonist reference peptide (YGGFLRRIRPKLK-NH2; UniProt P01213 207-219, looked up, fragment)”, the EC50 (KOR [9]) is given as 0.0028 µM and the Ki (KOR [10]) is given as 0.0003 µM.
